The numbers were not newly measured in patent US9625473B2, “Cytokine biomarkers as predictive biomarkers of clinical response for glatiramer acetate” (TEVA PHARMACEUTICAL INDUSTRIES LTD., priority 2010, dated 2017), which cites them from elsewhere.

In one data set the test system is PBMC. The conditions noted are these: GA-treated vs. untreated patients.
The next data set deals with IL-4. Particulars: after stimulation with GA, mediated predominantly by CD4 cells, GA-treated vs. untreated patients.
The next data set has as its system IFN-gamma. The conditions noted are these: after stimulation with high GA concentrations, partially mediated by CD8 cells, GA-treated vs. untreated patients.

Take Glatiramer acetate [GA]: the “number of relapses, compared with placebo” value with RRMS subjects (RRMS subjects, GA 20 mg/day, three double-blind placebo-controlled studies) is “significant reduction”. Also, the tolerability result in the data set with RRMS subjects (daily standard dose of 20 mg) was “generally well tolerated”. In addition, the relapse rate reduction in the data set on RRMS subjects (largest controlled study, GA 20 mg vs placebo) is reported as 32%. Further, the relapse rate with RRMS subjects (largest controlled study, under GA 20 mg) is recorded as 1.34. Further, the “median cumulative number of Gd-enhancing lesions” value in the data set on RRMS subjects (over 9 months of treatment, 20 mg group, MRI) was 11 lesions. The “GA-induced PBMC proliferation” value with PBMC is listed as “significant reduction”. Moreover, the “IL-4 ELISPOT response” value in the data set with IL-4 is “positive”. Moreover, the IFN-gamma response entry in the data set with IFN-gamma is reported as “elevated”.
